Data from the SangsterLogP compilation.

Legend:
[1] = method code SF-AS, from DOI: 10.1515/znb-1972-0211, PMID: 4401834; details: pH 7.0
[2] = method code SF, from DOI: 10.1515/znb-1972-0211, PMID: 4401834; details: pH 7.0

| SMILES | logD [1] | logD [2] |
| --- | --- | --- |
| CCOC(=O)/C(C#N)=N\Nc1cc(Cl)c(Cl)cc1Cl | 5.21 |  |
| CC(=O)C(C#N)=NNc1ccc(Cl)cc1 | 4.13 |  |
| COC(=O)C(C#N)=NNc1ccc(S(=O)(=O)C(F)(F)F)cc1 | 4.22 |  |
| CC(C)(C)C(=O)C(C#N)=NNc1cccc(Cl)c1 | 4.62 |  |
| COC(=O)C(C#N)=NNc1ccc(C(F)(F)F)cc1 | 3.79 |  |
| CC(=O)C(C#N)=NNc1ccc2c(c1)OC(F)(F)C(F)(F)O2 | 5.31 |  |
| CCOC(=O)C(C#N)=NNc1ccccc1Cl | 3.38 |  |
| CCOC(=O)C(C#N)=NNc1cc(Cl)c(Cl)c(Cl)c1 | 5.03 |  |
| CCOC(=O)/C(C#N)=N\Nc1ccc(Cl)c(C(F)(F)F)c1 | 4.86 |  |
| CC(C)(C)C(=O)C(C#N)=NNc1ccc(Cl)cc1C(F)(F)F | 5.67 |  |
| COC(=O)C(C#N)=NNc1ccc2c(c1)OC(F)(F)C(F)(F)O2 | 4.86 |  |
| COC(=O)/C(C#N)=N\Nc1cc(Cl)c(Cl)c(Cl)c1 | 5.22 |  |
| COC(=O)/C(C#N)=N\Nc1cccc(Cl)c1 | 3.56 |  |
| COC(=O)/C(C#N)=N\Nc1cc(Cl)c(Cl)cc1Cl |  | 5.15 |
| CC(C)(C)C(=O)C(C#N)=NNc1cc(C(F)(F)F)cc(C(F)(F)F)c1 | 5.44 |  |
| COC(=O)C(C#N)=NNc1ccccc1C(F)(F)F | 3.72 |  |
| COC(=O)C(C#N)=NNc1ccccc1 | 2.59 |  |
| CC(=O)C(C#N)=NNc1ccccc1Cl | 4.01 |  |

| SMILES | logD [1] | logD [2] |
| --- | --- | --- |
| CC(=O)C(C#N)=NNc1ccc(Cl)c(Cl)c1 | 4.56 |  |
| COC(=O)/C(C#N)=N\Nc1cc(C(F)(F)F)cc(C(F)(F)F)c1 | 5.02 |  |
| COC(=O)C(C#N)=NNc1cc(C#N)ccc1C#N | 2.81 |  |
| CCS(=O)(=O)c1ccc(C(F)(F)F)cc1NN=C(C#N)C(C)=O | 4.22 |  |
| CCOC(=O)/C(C#N)=N\Nc1cc(Cl)cc(Cl)c1 | 3.82 |  |
| CCOC(=O)/C(C#N)=N\Nc1cccc(Cl)c1 | 3.94 |  |
| Cc1cc(Cl)ccc1NN=C(C#N)C(=O)C(C)(C)C | 4.31 |  |
| COC(=O)C(C#N)=NNc1cccc(C(F)(F)F)c1 | 3.78 |  |
| COC(=O)/C(C#N)=N\Nc1cc(Cl)cc(Cl)c1 | 4.5 |  |
| CC(C)(C)C(=O)C(C#N)=NNc1cc(Cl)c(Cl)cc1Cl | 5.86 |  |
| CC(=O)C(C#N)=NNc1ccc(Cl)cc1C | 4.28 |  |
| CCOC(=O)C(C#N)=NNc1cc(C(F)(F)F)ccc1Cl | 4.45 |  |
| COC(=O)C(C#N)=NNc1cc(C(F)(F)F)ccc1Cl | 4.42 |  |
| CC(C)(C)C(=O)C(C#N)=NNc1ccc2c(c1)OC(F)(F)C(F)(F)O2 | 4.96 |  |
| CC(=O)C(C#N)=NNc1cc(Cl)cc(Cl)c1 | 4.68 |  |
| CC(=O)C(C#N)=NNc1ccc(SC(F)(F)F)cc1 | 5.04 |  |
| CC(=O)C(C#N)=NNc1cccc(Cl)c1 | 3.91 |  |
| COC(=O)/C(C#N)=N\Nc1ccc(SC(F)(F)F)cc1 | 4.27 |  |
